From patent publication US11434205B2, “Substituted imidazole carboxylate derivatives and the use thereof” (priority 2018, dated 2022)
Where two headings read alike, the source gives them in different places.

Legend:
rats [1] = format: in vivo, rat; conditions: for recovery time of the test animals' righting reflex: rats of the MAP/HR figures, 2×ED50, tail vein, same value in min
Method in brief: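 Hemodynamic stability judged from mean arterial pressure and heart rate, recorded at 15 s intervals over 30 min pre- and post-dose. Dosing was through a tail-vein indwelling catheter in rats carrying implanted aortic/ventricular catheters and ECG wires, operated ≥1 week earlier.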

rats [2] = assay: Pharmacological characteristics at equivalent doses (2×ED50) in rats; conditions: 2×ED50, tail vein; for Adverse reactions: Red urine (incidence): DMSO solution (DMSO alone 10/10); for Onset time: time of LORR
Method in brief: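 Anesthesia onset, recorded as time of LORR, was measured after a 2×ED50 tail-vein injection (0.6 mL, 0.1 mL/s). Animals were male Sprague-Dawley rats of 250-300 g, n=8.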

[3] = system: secretion of corticosterone, H295R cell line; assay: cells; format: cell-based
Method: (§1) The Effects of the Compounds on Adrenocortical Function In Vitro Test
(§2) Then secretion of the cortisol and corticosterone in the supernatant, was measured using HPLC-MS/MS method to determine whether the compounds of the present invention had adrenotoxic potential.

[4] = system: secretion of cortisol, H295R cell line; assay: cells; format: cell-based
Method: as §1, §2

rats [5] = format: in vivo, rat; conditions: rats of the MAP/HR figures, 2×ED50, tail vein
rats [6] = assay: Loss of righting reflexes (LORR) assay in rats, ED50 by up and down method; format: in vivo, rat; conditions: tail vein; for ED50: Rattus norvegicus
Method in brief: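 ED50 obtained by up-and-down dosing, with righting-reflex loss over 30 s counted as general anesthesia. Compounds injected into the tail vein (0.1 mL/s) of male Sprague-Dawley rats weighing 250-300 g.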

rats [7] = system: rats
Method: Pharmacological Effects of the Compounds on Continuous Infusion in Rats
Adult male Sprague-Dawley rats with body weight ranging from 250 to 300 gm were selected for continuous infusion test. […] Time to recovery of righting reflex from stopping infusion, and time to fully awake from stopping infusion were recorded.

rats [8] = system: rats; remark: listed apart in the source
Method: Adult male Sprague-Dawley rats (250-300 g) were selected for the experiment. […] The anesthesia effects of the compounds were assessed in rats using a LORR assay and a period >30 s was considered as an indicator of general anesthesia. Then the up and down method was used to determine 50% effective dose (ED50). The drugs were administered through the tail vein of rats in a volume of 0.6 mL and at a rate of 0.1 mL/s.

[9] = H295R cell line; 0.1-10000 nM; HPLC-MS/MS; Table D3
[10] = Homo sapiens, NCI-H295R, read-out: EC50 (Corticosterone)
[11] = Homo sapiens, NCI-H295R, read-out: EC50 (Cortisol)
[12] = continuous tail vein infusion at 2×MIR, LORR maintained 1 hour, Table D4
[13] = emulsion, continuous infusion at 2×MIR
[14] = H295R cell line; 0.1-10000 nM; HPLC-MS/MS; Table E3
[15] = continuous tail vein infusion at 2×MIR, LORR maintained 1 hour, Table E4
[16] = continuous tail vein infusion at 2×MIR, LORR maintained 1 hour, Table C4

Structure (SMILES)	recovery time of the test animals' righting reflex (rats [1]) [min]	Righting reflex duration (rats [2]) [min]	Adverse reactions: Red urine (incidence) (rats [2])	Onset time (rats [2]) [min]	Corticosterone as an indicator to determine the presence of inhibition [3, 9]	EC50 [3, 10] [nM]	Cortisol as an indicator to determine the presence of inhibition [4, 9]	EC50 [4, 11] [nM]	recovery time of the test animals' righting reflex (rats [5]) [s]	ED50 (rats [6]; class symbols) [mg/kg]	Onset time (rats [7]; [12]) [min]	Recovery time after stopping infusion (rats [7]; [12]) [min]	Approximate therapeutic index (rats [8])	Minimal lethal dose (rats [8]) [mg/kg]	Corticosterone as an indicator to determine the presence of inhibition ([3]; H295R; Table A3)	Cortisol as an indicator to determine the presence of inhibition ([4]; H295R; Table A3)	Recovery time after stopping infusion (rats [7]; after 1 hour infusion at 2×MIR) [min]	Adverse reactions: Tremor (incidence) (rats [7]; continuous infusion 2×MIR)	Onset time (rats [7]; [13]) [min]	Corticosterone as an indicator to determine the presence of inhibition ([3]; H295R; Table B3)	also measured
CC#CCOC(=O)c1cncn1[C@H](C)c1ccccc1 [Compound D18]	5.28	1.88 ± 0.95	urine (8/8)	0.22 ± 0.11	0	> 10000	0	> 10000	317	0.1 to 0.5	3 to 4	11 to 13	>12	>3							Adverse reactions: Convulsions (incidence) (rats [2]): Convulsions (1/8), Red; Types and incidence of adverse reactions (rats [7]; [12]): Convulsions (1/6), Tremor (4/6)
C[C@H](c1ccccc1)n1cncc1C(=O)OCC1CCC1 [Compound A8]	2.15	2.25 ± 2.64	Red urine (8/8)	0.34 ± 0.21		> 1000		> 1000	129	0.1 to 0.5			>10	>2	0	0	9 to 14	Tremor (1/6)	3 to 4		
C[C@H](c1ccccc1)n1cnc(F)c1C(=O)OC1(C)COC1 [Compound E38]	2.03	1.96 ± 1.39	(8/8)	0.25 ± 0.13					122				>20	>7							Sedation duration (mg/kg) (rats [2]): 4.96 ± 1.66; Corticosterone as an indicator to determine the presence of inhibition [3, 14]: 0; EC50 ([3]; H295R cell line; 0.1-10000 nM; HPLC-MS/MS; Table E3; read-out: EC50 (Corticosterone)): > 10000 nM; Cortisol as an indicator to determine the presence of inhibition [4, 14]: 0; EC50 ([4]; H295R cell line; 0.1-10000 nM; HPLC-MS/MS; Table E3; read-out: EC50 (Cortisol)): > 10000 nM; ED50 (mg/kg) (rats [6]; class symbols): B (B means that the measured ED50 is in the range of 0.10-0.50 mg/kg (excluding 0.10 mg/kg, including 0.50 mg/kg).); Onset time (rats [7]; [15]): 2 to 3 min; Recovery time after stopping infusion (rats [7]; [15]): 8 to 13 min; Types and incidence of adverse reactions (rats [7]; [15]): Tremor (3/6)
C=C=CC1(OC(=O)c2cncn2[C@H](C)c2ccccc2)CCC1 [Compound D13]	1.82	5.09 ± 1.89	Red urine (8/8)	0.25 ± 0.06	0	> 10000	0	> 10000	109	0.01 to 0.1	2 to 3	13 to 22	>12	>6							Types and incidence of adverse reactions (rats [7]; [12]): Tremor (4/6)
CC(OC(=O)c1cncn1[C@H](C)c1ccccc1)C1CC1 (stereo partly drawn) [Compound A16]	2.78	2.63 ± 1.20	8/8	0.16 ± 0.07		> 1000		> 1000	167	0.1 to 0.5			>33	>10	0	0	12 to 14	Tremor (3/6)	2 to 3		Adverse reactions: Tremor (incidence) (rats [2]; animals affected/animals): 2/8
C[C@H](c1ccccc1)n1cncc1C(=O)OCC1(C)COC1 [Compound B5]	4.25	3.98 ± 1.34	Red urine (8/8)	0.11 ± 0.02		> 10000		> 1000	255	0.1 to 0.5			>11	>10			12 to 14	Tremor (2/6)	3 to 4	0	Cortisol as an indicator to determine the presence of inhibition ([4]; H295R; Table B3): 0
CCC(CC)OC(=O)c1cncn1[C@H](C)c1ccccc1 [Compound C24]	2.25	2.21 ± 1.28	urine (8/8)	0.49 ± 0.15		> 1000		> 1000	135	0.01 to 0.1			>11	>1							Adverse reactions: Convulsions (incidence) (rats [2]): Convulsions (1/8), Red; Corticosterone as an indicator to determine the presence of inhibition ([3]; H295R; Table C3): 0; Cortisol as an indicator to determine the presence of inhibition ([4]; H295R; Table C3): 0; Onset time (rats [7]; [16]): 3 to 4 min; Recovery time after stopping infusion (rats [7]; [16]): 9 to 13 min; Types and incidence of adverse reactions (rats [7]; [16]): Tremor (1/6)
CCOC(=O)c1cncn1[C@H](C)c1ccccc1 [Etomidate, ethyl R-(+)-1-(1-phenylethyl)-1H-imidazol-5-carboxylate, reference compound]	7.33				2	> 10	2	> 1	440		4 to 5	25 to 30		12.75	2	2	25 to 30	6/6	4 to 5	2	effect on the circulatory function (MAP, HR) (rats [1]; rats, 2×ED50, 30 min after administration): almost no inhibitory effect on the circulatory function; Corticosterone as an indicator to determine the presence of inhibition [3, 14]: 2; Corticosterone as an indicator to determine the presence of inhibition ([3]; H295R; Table C3): 2; EC50 ([3]; read-out: EC50 (Corticosterone); H295R cell line; 0.1-10000 nM; HPLC-MS/MS; Table D3): > 10 nM; EC50 ([3]; read-out: EC50 (Corticosterone); H295R cell line; 0.1-10000 nM; HPLC-MS/MS; Table E3): > 10 nM; Cortisol as an indicator to determine the presence of inhibition [4, 14]: 2; Cortisol as an indicator to determine the presence of inhibition ([4]; H295R; Table B3): 2; Cortisol as an indicator to determine the presence of inhibition ([4]; H295R; Table C3): 2; EC50 ([4]; read-out: EC50 (Cortisol); H295R cell line; 0.1-10000 nM; HPLC-MS/MS; Table D3): > 1 nM; EC50 ([4]; read-out: EC50 (Cortisol); H295R cell line; 0.1-10000 nM; HPLC-MS/MS; Table E3): > 1 nM; ED50 (rats [6]; brackets = 95% confidence limit): 0.75 mg/kg; Adverse reactions: Facial muscle twitching (incidence) (rats [7]; continuous infusion 2×MIR): twitching (4/6), Tongue stretching; Adverse reactions: Tongue stretching (incidence) (rats [7]; continuous infusion 2×MIR): (5/6); Onset time (rats [7]; [16]): 4 to 5 min; Recovery time after stopping infusion (rats [7]; [16]): 25 to 30 min; Onset time (rats [7]; [15]): 4 to 5 min; Recovery time after stopping infusion (rats [7]; [15]): 25 to 30 min
CC(OC(=O)c1cncn1[C@H](C)c1ccccc1)C1CO1 (stereo partly drawn) [Compound B20]	2.68	2.59 ± 0.99	Red urine (8/8)	0.28 ± 0.14		> 1000		> 1000	161	0.5 to 1			>10	>17						0	Cortisol as an indicator to determine the presence of inhibition ([4]; H295R; Table B3): 0
